Entries after “also recorded” stand apart in the source; their conditions may differ.
Key:
Assay type in all cases: physicochemical
[1] = Physical stability in the drug product by FT-Raman and Solid State NMR spectroscopy; conditions: for amount of physical impurity: in drug product
Description: The physical stabilities of lorlatinib Form 7 and acetic acid solvate in the drug product were investigated under a variety of conditions using FT-Raman and Solid State NMR spectroscopy.

[2] = Thermodynamic stability: slurry experiments, solid form evaluated by PXRD; conditions: for Slurry Output (solid form): 2 weeks
Procedure: The thermodynamic stability of anhydrous lorlatinib free base (Form 7) was evaluated employing slurry experiments under a range of water activity and temperature conditions. […] After 2 weeks, the solids in equilibrium were isolated and the solid form was evaluated by PXRD.

[3] = Solid-state physical stability of Form 7 API at elevated humidity / accelerated conditions
Description: The physical stability of anhydrous lorlatinib free base (Form 7) API was investigated at elevated relative humidities (% RH) for extended time period and at accelerated stability conditions for shorter period.

CC(=O)O.C[C@H]1Oc2cc(cnc2N)-c2c(nn(C)c2C#N)CN(C)C(=O)c2ccc(F)cc21 [lorlatinib acetic acid solvate, reference compound]
amount of physical impurity ([1]; 70° C./10% RH, 3 weeks): impurity >50%
amount of physical impurity ([1]; 70° C./40% RH, 2 weeks): impurity >50%
amount of physical impurity ([1]; 70° C./75% RH, 1 week): impurity >50%

C[C@H]1Oc2cc(cnc2N)-c2c(nn(C)c2C#N)CN(C)C(=O)c2ccc(F)cc21 [Form 7, (10R)-7-amino-12-fluoro-2,10,16-trimethyl-15-oxo-10,15,16,17-tetrahydro-2H-8,4-(metheno)pyrazolo[4,3-h][2,5,11]benzoxadiazacyclotetradecine-3-carbonitrile]
Slurry Output (solid form) ([2]; IPA, water activity 0.25, 5° C.): Form 16
Slurry Output (solid form) ([2]; IPA, water activity 0.25, 40° C.): Form 7
Slurry Output (solid form) ([2]; IPA, water activity 0.25, RT): Form 7
Slurry Output (solid form) ([2]; IPA, water activity 0.50, 5° C.): Form 13
Slurry Output (solid form) ([2]; IPA, water activity 0.50, 40° C.): Form 5
Slurry Output (solid form) ([2]; IPA, water activity 0.50, RT): Form 13
Slurry Output (solid form) ([2]; IPA, water activity 0.70, 5° C.): Form 13
Slurry Output (solid form) ([2]; IPA, water activity 0.70, 40° C.): Form 5
Slurry Output (solid form) ([2]; IPA, water activity 0.70, RT): Form 13
Slurry Output (solid form) ([2]; IPA, water activity 0.90, 5° C.): Form 13
Slurry Output (solid form) ([2]; IPA, water activity 0.90, 40° C.): Form 13
Slurry Output (solid form) ([2]; IPA, water activity 0.90, RT): Form 13
Slurry Output (solid form) ([2]; MiBK, water activity 0, 5° C.): Form 7
Slurry Output (solid form) ([2]; MiBK, water activity 0, 40° C.): Form 7
Slurry Output (solid form) ([2]; MiBK, water activity 0, RT): Form 7
Slurry Output (solid form) ([2]; TBME, water activity 0, 5° C.): Form 7
Slurry Output (solid form) ([2]; TBME, water activity 0, 40° C.): Form 7
Slurry Output (solid form) ([2]; TBME, water activity 0, RT): Form 7
Slurry Output (solid form) ([2]; Toluene, water activity 0, 5° C.): Form 7
Slurry Output (solid form) ([2]; Toluene, water activity 0, 40° C.): Form 7
Slurry Output (solid form) ([2]; Toluene, water activity 0, RT): Form 7
Slurry Output (solid form) ([2]; Water, water activity 1.00, 5° C.): Form 7 + Form 18
Slurry Output (solid form) ([2]; Water, water activity 1.00, 40° C.): Form 7
Slurry Output (solid form) ([2]; Water, water activity 1.00, RT): Form 18
Thermodynamic stability, overall outcome of slurry experiments ([2]; diverse solvent systems, 5° C., room temperature and 40° C., water activities 0.25 to 1.00, 2 weeks): does not convert to a different anhydrous solid state
Slurry Output (solid form) ([2]; iProAc, water activity 0, 5° C.): Form 7
Slurry Output (solid form) ([2]; iProAc, water activity 0, 40° C.): Form 7
Slurry Output (solid form) ([2]; iProAc, water activity 0, RT): Form 7
Slurry Output (solid form) ([2]; nBuOH, water activity 0, 5° C.): Form 7
Slurry Output (solid form) ([2]; nBuOH, water activity 0, 40° C.): Form 7
Slurry Output (solid form) ([2]; nBuOH, water activity 0, RT): Form 20
Solid Form after storage (physical stability) ([3]; 70° C./75% RH, 1 week): did not undergo any physical change; also recorded: Form 7
Solid Form after storage (physical stability) ([3]; 75% RH, ambient temperature, 12 months): did not undergo any physical change; also recorded: Form 7
Solid Form after storage (physical stability) ([3]; 80° C./40% RH, 1 week): Form 7
Physical change after storage (physical stability) ([3]; 80° C./75% RH, 1 week (as printed in text)): did not undergo any physical change
Solid Form after storage (physical stability) ([3]; 90% RH, ambient temperature, 12 months): did not undergo any physical change; also recorded: Form 7
amount of physical impurity ([1]; 25° C./60% RH, 12 months): No change detected
amount of physical impurity ([1]; 30° C./65% RH, 12 months): No change detected
amount of physical impurity ([1]; 50° C./75% RH, 2 weeks): No change detected
amount of physical impurity ([1]; 70° C./10% RH, 3 weeks): No change detected
amount of physical impurity ([1]; 70° C./40% RH, 2 weeks): No change detected
amount of physical impurity ([1]; 70° C./75% RH, 1 week): No change detected
physical stability relative to the acetic acid solvate of lorlatinib free base ([1]; representative drug product formulation): superior physical stability
